Measurements reported in patent US6872850B2, “Small molecule inhibitors of secretion of proteins encoded by ARE-mRNAs” (Message Pharmaceuticals, priority 2001, dated 2005).
Counter-ions that a name gives are not always drawn.

Assays:
[1] = test system: TNFα; assay: ELISA of TNFα secreted into the media after LPS; format: cell-based; conditions: for effect on amount of secreted TNFα (direct TNFα secretion assay), in words: after LPS stimulation; for TNFα Secretion (% of DMSO control): 10 μM compound, 1 h, then LPS
Description: The ability of candidate compounds to reduce the amount of secreted TNFα was also directly tested using an ELISA assay. […] A standard ELISA analysis was used to measure the amount of TNFα secreted into the media (see, for example, Ausubel et al., supra). The effect of a candidate compound on TNFα secretion in this assay is reported in the following tables as a percentage of the amount of TNFα secreted by a control cell that was administered a DMSO vehicle control only.

[2] = test system: 3′ UTR of the TNFα gene; assay: cell-based luciferase reporter assay, 5B cell line (luciferase gene with entire 3′ UTR of the TNFα gene); design: species or system mouse; conditions: for Luciferase 5B (% of DMSO control) / Luciferase 5B/3B (% of DMSO control 5B)/(% of DMSO control 3B): 10 μM compound; for Luciferase 5B (% of DMSO control): 1 h, then LPS, 5B cell line; for Luciferase 5B/3B (% of DMSO control 5B)/(% of DMSO control 3B): ratio of 5B to control 3B cell line
[3] = test system: control cell line 3B (Raw 264.7, CMV-luciferase); assay: luciferase reporter assay, control 3B cell line (luciferase without 3′ UTR of TNFα); format: cell-based, mouse
Description: The candidate compounds were tested in a high-throughput, cell-based luciferase reporter assay. For this assay, a commercially available mouse macrophage Raw 264.7 cell line was stably transfected with a construct containing the CMV promoter operably linked to the luciferase gene which was modified using standard molecular biology techniques to contain the entire 3′ UTR of the TNFα gene. This 3′ UTR is important for the stability and translation of TNFα in cells. To control for effects of candidate compounds that are not specific for TNFα, a control cell line, called “3B,” was generated by stably transfecting the 264.7 cell line with a commercially available construct containing the luciferase gene (without the addition of the heterologous 3′ UTR of the TNFα gene) under the regulation of the CMV promoter.
Both the 3B and 5B cell lines were incubated in the presence of 10 μM of a candidate compound for one hour. Then, lipopolysaccharide (LPS) was added to stimulate TNFα secretion. Luciferase activity was measured by determining the luminescence intensity due to the reaction of lucifern, ATP, Mg^2+, and molecular O2 (see, for example, Ausubel et al., supra). The luciferase activity in a cell incubated with a candidate compound was reported as a percentage of the luciferase activity for the corresponding cell incubated with DMSO vehicle only. […]

Compound | effect on amount of secreted TNFα (direct TNFα secretion assay), in words [1] | effect on luciferase activity in the 5B cell line (luciferase assay), in words [2] | effect on luciferase activity in the 3B control cell line, in words [3] | TNFα Secretion (% of DMSO control) [1] | Luciferase 5B (% of DMSO control) [2] | Luciferase 5B/3B (% of DMSO control 5B)/(% of DMSO control 3B) [2]
C/C(=N\NC(=N)N)c1ccc(C(=O)N[C@@H](Cc2ccccc2)C(=O)NCCNC(=O)[C@H](Cc2ccccc2)NC(=O)c2ccc(/C(C)=N/NC(=N)N)cc2)cc1 [MES 10094, (E,E)-Bisguanylhydrazone of 1-[(S)-N-(4-Acetylbenzoyl)-2-amino-3-phenylpro-panoyl]-4-[(S)-N-(4-acetylbenzoyl)-2-amino-3-phenylpropanoyl]-1,4-diaza-butane bis hydrochloride] | inhibited TNFα secretion | strongly inhibited | only weakly inhibited | – | – | –
C/C(=N\NC(=N)N)c1cccc(C(=O)N[C@@H](CC(C)C)C(=O)N2CCN(C(=O)[C@H](Cc3ccccc3)NCc3ccc([N+](=O)[O-])cc3)CC2)c1 [MES 10243] | – | – | – | 73 % of DMSO control | 81 % of DMSO control | 79 (% of DMSO control 5B)/(% of D
C/C(=N\NC(=N)N)c1cccc(C(=O)N[C@@H](CC(C)C)C(=O)N2CCN(C(=O)[C@H](Cc3ccccc3)NCc3ccc(-c4ccccc4)cc3)CC2)c1 [MES 10244] | – | – | – | 48 % of DMSO control | 46 % of DMSO control | 36 (% of DMSO control 5B)/(% of D
CC(C)CC(NC(=O)c1ccc(C(=NNC(=N)N)c2ccccc2)cc1)C(=O)N1CCN(C(=O)C(Cc2ccccc2)NC(=O)c2ccccc2)CC1 (stereo not shown) [MES 10247] | – | – | – | 39 % of DMSO control | 37 % of DMSO control | 41 (% of DMSO control 5B)/(% of D
CC(C)CC(NC(=O)c1ccc(C(=NNC(=N)N)c2ccccc2)cc1)C(=O)N1CCN(C(=O)C(Cc2ccccc2)NC(=O)c2ccccc2)CC1 (stereo not shown) [MES 10248] | – | – | – | 39 % of DMSO control | 56 % of DMSO control | 72 (% of DMSO control 5B)/(% of D
CC(C)C[C@H](NC(=O)c1ccccc1)C(=O)N1CCN(C(=O)[C@H](Cc2ccccc2)NC(=O)c2ccc(/C(=N/N=C(N)N)c3ccccc3)cc2)CC1.O=C(O)C(F)(F)F [MES 10249, (E)-Guanylhydrazone of 1-[(S)-N-(4-benzoylbenzoyl)-2-amino-3-phenylpropanoyl]-4-[(2S)-N-(benzoyl)-2-amino-4-methylpentanoyl]-1,4-piperazine trifluoroacetate] | – | – | – | 40 % of DMSO control | 58 % of DMSO control | 68 (% of DMSO control 5B)/(% of D
CC(C)C[C@H](NC(=O)c1ccccc1)C(=O)N1CCN(C(=O)[C@H](Cc2ccccc2)NC(=O)c2ccc(/C(=N\N=C(N)N)c3ccccc3)cc2)CC1.O=C(O)C(F)(F)F [MES 10250, (Z)-Guanylhydrazone of 1-[(S)-N-(4-benzoylbenzoyl)-2-amino-3-phenylpropanoyl]-4-[(2S)-N-(benzoyl)-2-amino-4-methylpentanoyl]-1,4-piperazine trifluoroacetate] | – | – | – | 40 % of DMSO control | 37 % of DMSO control | 49 (% of DMSO control 5B)/(% of D
C/C(=N\NC(=N)N)c1cccc(C(=O)N[C@@H](CC(C)C)C(=O)N2CCN(C(=O)[C@H](Cc3ccccc3)NC(=O)c3ccc(OCc4ccccc4)cc3)CC2)c1 [MES 10307] | – | – | – | 45 % of DMSO control | 38 % of DMSO control | 40 (% of DMSO control 5B)/(% of D
(1-Z,4-E)-Bisguanylhydrazone of 1-[(S)-N-(4-benzoylbenzoyl)-2-amino-3-phenylpropanoyl]-4-[(2S)-N-(3-acetylbenzoyl)-2-amino-4-methylpentanoyl]-piperazine bis trifluoroacetate [MES 10172] | – | – | – | 60 % of DMSO control | 38 % of DMSO control | 49 (% of DMSO control 5B)/(% of DMSO control 3B)
(E,E)-Bisguanylhydrazone of 1-[(S)-N-(4-benzoylbenzoyl)-2-amino-3-phenylpropanoyl]-4-[(2S)-N-(3-acetylbenzoyl)-2-amino-4-methylpentanoyl]-1,4-piperazine bis trifluoroacetate [MES 10171] | – | – | – | 57 % of DMSO control | 20 % of DMSO control | 24 (% of DMSO control 5B)/(% of DMSO control 3B)
(E,E)-Bisguanylhydrazone of 1-[(S)-N-(4-benzoylbenzoyl)-2-amino-3-phenylpropanoyl]-4-[(2S)-N-(4-benzoylbenzoyl)-2-amino-4-methylpentanoyl]-1,4-piperazine bis trifluoroacetate [MES 10164] | inhibited TNFα secretion | inhibited TNFα secretion | – | 45 % of DMSO control | 29 % of DMSO control | 31 (% of DMSO control 5B)/(% of DMSO control 3B)
(Z,Z)-Bisguanylhydrazone of 1-[(S)-N-(4-benzoylbenzoyl)-2-amino-3-phenylpropanoyl]-4-[(2S)-N-(4-benzoylbenzoyl)-2-amino-4-methylpentanoyl]-1,4-piperazine bis trifluoroacetate [MES 10165] | inhibited TNFα secretion | inhibited TNFα secretion | – | 36 % of DMSO control | 37 % of DMSO control | 63 (% of DMSO control 5B)/(% of DMSO control 3B)
